# Test results as given in ChEMBL document CHEMBL1123576.
# Experiments:
# [1] = biological target: T1, Opioid receptors; mu/kappa/delta (Homo sapiens) (UniProt P41145+P41143+P35372); experiment: The IC50 value of agonist (ethylketazocine) in presence of antagonist (Compound 20 nM) divided by the control […] value with no antagonist in GPI (Guinea pig ileum); assay type: functional, tissue-based; details: Cavia porcellus, target entry is the homologue from another species
# [2] = biological target: T1, Opioid receptors; mu/kappa/delta (Homo sapiens); experiment: The IC50 value of agonist (morphine) in presence of antagonist (Compound 20 nM) divided by the control […] value with no antagonist in GPI (Guinea pig ileum); assay type: functional, tissue-based; details: Cavia porcellus, target entry is the homologue from another species
# [3] = biological target: T1, Opioid receptors; mu/kappa/delta (Homo sapiens); experiment: The IC50 value of agonist (DADLE) in presence of antagonist (Compound 20 nM) divided by the control […] value with no antagonist in MVD (mouse vas deferens); assay type: functional; details: Cavia porcellus
# T1 sequence (P35372 whole entry, looked up): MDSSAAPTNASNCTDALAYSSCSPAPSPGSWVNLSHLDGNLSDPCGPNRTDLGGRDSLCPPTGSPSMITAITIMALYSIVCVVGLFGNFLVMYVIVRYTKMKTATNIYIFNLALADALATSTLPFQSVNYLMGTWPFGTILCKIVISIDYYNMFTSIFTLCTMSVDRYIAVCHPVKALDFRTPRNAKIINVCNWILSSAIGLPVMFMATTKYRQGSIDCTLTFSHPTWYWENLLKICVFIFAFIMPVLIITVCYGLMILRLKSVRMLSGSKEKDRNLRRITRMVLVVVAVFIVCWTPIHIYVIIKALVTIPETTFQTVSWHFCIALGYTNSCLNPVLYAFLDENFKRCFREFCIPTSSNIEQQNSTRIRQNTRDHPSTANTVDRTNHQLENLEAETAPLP
# T1 sequence (P41143 whole entry, looked up): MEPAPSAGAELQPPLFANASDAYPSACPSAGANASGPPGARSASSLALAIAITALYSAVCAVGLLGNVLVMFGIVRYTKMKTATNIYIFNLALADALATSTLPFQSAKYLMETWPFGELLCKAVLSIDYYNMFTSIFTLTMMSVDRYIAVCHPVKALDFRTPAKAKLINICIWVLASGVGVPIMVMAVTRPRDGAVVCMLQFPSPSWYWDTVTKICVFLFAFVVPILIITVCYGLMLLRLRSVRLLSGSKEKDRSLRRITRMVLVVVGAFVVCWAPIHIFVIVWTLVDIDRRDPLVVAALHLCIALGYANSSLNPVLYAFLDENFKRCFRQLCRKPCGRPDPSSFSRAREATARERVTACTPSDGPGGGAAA
# T1 sequence (P41145 whole entry, looked up): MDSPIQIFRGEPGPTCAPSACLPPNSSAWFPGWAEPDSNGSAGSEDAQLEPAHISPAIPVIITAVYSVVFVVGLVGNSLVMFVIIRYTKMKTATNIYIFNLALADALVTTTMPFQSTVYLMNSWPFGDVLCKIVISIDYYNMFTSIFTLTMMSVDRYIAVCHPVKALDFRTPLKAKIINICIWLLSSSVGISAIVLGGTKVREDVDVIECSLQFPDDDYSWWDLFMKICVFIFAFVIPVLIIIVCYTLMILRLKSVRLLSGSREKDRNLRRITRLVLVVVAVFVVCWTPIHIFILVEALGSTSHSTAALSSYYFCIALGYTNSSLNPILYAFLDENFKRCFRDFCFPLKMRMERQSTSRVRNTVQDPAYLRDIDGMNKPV
Compound,Ratio [1],Ratio [2],Ratio [3]
Cn1c2c(c3c1[C@@H]1Oc4c(O)ccc5c4[C@@]14CCN(CC1CC1)[C@H](C5)C4(O)C3)CC1(O)[C@H]3Cc4ccc(O)c5c4[C@@]1(CCN3CC1CC1)[C@H]2O5 (stereo partly specified),128,5.4,4.5
Oc1ccc2c3c1O[C@@H]1c4[nH]c5c(c4CC4(O)[C@@H](C2)N(CC2CC2)CC[C@]314)CC1(O)[C@H]2Cc3ccc(O)c4c3[C@]1(CCN2CC1CC1)[C@H]5O4 (stereo partly specified),50.4,1.6,2
